Assay results from patent US20050053916A1, “Diagnostic for long term response of HBV carrier to 3TC therapy” (priority 2002, published 2005).
Where “and” joins values, the source holds several entries; their conditions need not be identical. Equal values may be shown once. Entries after “also recorded” stand apart in the source; their conditions may differ.

Tests used:
HBV [1] = settings: after 16 weeks or more of treatment; HBeAg positive candidates; cited from earlier work
[2] = system: serum alanine transaminase (ALT); assay: Biochemical response (serum ALT) in chronic hepatitis B patients on long-term lamivudine therapy; type: in vivo, human; settings: for No. of patients with ALT elevation / No. of patients with Sustained ALT Normalization: outcome summary
Experimental: All patients had detectable HBV DNA by polymerase chain reaction (PCR) assay (HBV Monitor, Roche Diagnostics, Inc.) and by solution hybridization assay (Abbott Diagnostics, Inc.) at baseline and for at least 6 months before therapy. […] Patients were negative for hepatitis C, hepatitis D, or human immunodeficiency virus antibodies, and there were no evidences of autoimmune hepatitis. None of the patients were treated with interferon or other antiviral agents, such as famciclovir or adefovir dipovoxil, during the study or within six months before the beginning of lamivudine treatment.
(§1) All patients were followed with monthly clinical examination and routine laboratory tests.
Blood test—An aliquot of serum was collected at each visit and stored at −70° C. until used for analysis.
HBV serologic markers were tested by commercial enzyme immunoassay kits: HBeAg and anti-HBeAg (DiaSorin, Italy), and HBsAg (Abbott Laboratories, Inc.). Serum samples were also evaluated for routine biochemical markers of liver disease, including ALT.
(§2) Definitions—“Responder” patients were classified as attaining both a biochemical and virological response: normalization of ALT values and the absence of serum HBV DNA by Monitor™ PCR in two consecutive determinations during treatment. “Breakthrough” was defined as those patients in who HBV DNA reappeared by Monitor™ PCR assay after an initial antiviral response (serum HBV DNA negative by Monitor™ PCR), eventually associated with an increase of ALT levels greater than 1.5× the upper limit of normal (35 IU/L).

HBV [3] = assay: Virological response (serum HBV DNA, HBV Monitor PCR) in chronic hepatitis B patients on long-term lamivudine therapy; type: in vivo, human; settings: for virologic breakthrough observed, number of patients: of 12 breakthrough patients
Excerpt: All patients had detectable HBV DNA by polymerase chain reaction (PCR) assay (HBV Monitor, Roche Diagnostics, Inc.) and by solution hybridization assay (Abbott Diagnostics, Inc.) at baseline and for at least 6 months before therapy. […] Patients were negative for hepatitis C, hepatitis D, or human immunodeficiency virus antibodies, and there were no evidences of autoimmune hepatitis.
as §1
Serum HBV DNA for the evaluation of response to treatment was analyzed by the HBV Monitor™ assay (Roche Diagnostic, Inc.) with a detection limit of 100 copies/ml, and a solution hybridization assay (Abbott Laboratories, Inc.) with a detection limit of 10 pg/ml.
as §2

[4] = individual breakthrough (BK) patients, row order Pt #4, 5, 8, 10, 12, 13, 16, 17, 19, 20, 24, 26, 27-53 months of treatment
[5] = individual non-responder (NR) patients, row order Pt #3, 6, 9, 11, 15, 21, 22, 33-47 months of treatment
[6] = after a minimum of 27 months of therapy, 26 patients

interferon-alpha
individuals who lose serum HBeAg (HBV [1]): about 40%

Nc1ccn([C@@H]2CS[C@H](CO)O2)c(=O)n1 [lamivudine]
patients in whom serum ALT normalized ([2]; by week 24 of treatment, 13 of 26 patients, lamivudine orally 100 mg daily): 50%
ALT (IU/L), treatment (last follow up) [2, 4]: 9 IU/L (2×) and 5 IU/L (3×) and 21 IU/L and 75 IU/L and 81 IU/L and 51 IU/L and 80 IU/L and 2 IU/L and 4 IU/L
ALT (IU/L), treatment (last follow up) [2, 5]: 68 IU/L and 37 IU/L and 4 IU/L (2×) and 66 IU/L and 74 IU/L and 85 IU/L
ALT (IU/L), treatment (last follow up) ([2]; individual responder (R) patients, row order Pt #1, 2, 7, 14, 18, 23, 25, 27-50 months of treatment, upper limit of normal 35 IU/L): 30 IU/L and 24 IU/L (2×) and 20 IU/L and 18 IU/L and 21 IU/L and 16 IU/L
No. of patients with ALT elevation ([2]; Breakthrough group (12 pts)): 5
No. of patients with Sustained ALT Normalization ([2]; Breakthrough group (12 pts)): 7
No. of patients with ALT elevation ([2]; Non-responder group (7 pts)): 7
No. of patients with Sustained ALT Normalization ([2]; Non-responder group (7 pts)): 0
No. of patients with ALT elevation ([2]; Responder group (7 pts)): 7
No. of patients with Sustained ALT Normalization ([2]; Responder group (7 pts)): 0
virologic breakthrough observed, number of patients (HBV [3]; after 12 months of therapy): 6 patients
patients who were breakthroughs (HBV [3]; [6]): 46%
patients who were non-responders (HBV [3]; [6]): 27%
patients who were responders (HBV [3]; [6]): 27%
virologic breakthrough observed, number of patients (HBV [3]; between 12 and 18 months of therapy): 5 patients
patients in whom HBV DNA became undetectable (HBV [3]; by week 24 of treatment, 19 of 26 patients, lamivudine orally 100 mg daily): 73%
HBV DNA (log10/ml), treatment (last follow up) (HBV [3]; [4]): 5.00 log10/ml and 5.31 log10/ml and 5.17 log10/ml and 6.20 log10/ml and 5.67 log10/ml and 6.62 log10/ml and 5.88 log10/ml and 4.54 log10/ml and 6.08 log10/ml and 7.02 log10/ml and 6.18 log10/ml
HBV DNA (log10/ml), treatment (last follow up) (HBV [3]; [5]): 4.25 log10/ml and 4.55 log10/ml and 6.11 log10/ml (2×) and 7.28 log10/ml and 5.19 log10/ml and 6.19 log10/ml
HBV DNA (log10/ml), treatment (last follow up) (HBV [3]; individual responder (R) patients, row order Pt #1, 2, 7, 14, 18, 23, 25, 27-50 months of treatment): ud* (undetectable, limit of detection 1000 copies/ml); also recorded: ud (undetectable, limit of detection 1000 copies/ml)
No. of Patients (%), Breakthrough (HBV [3]; outcome summary (26 pts)): 12 (46%)
No. of Patients (%), Non-responder (HBV [3]; outcome summary (26 pts)): 7 (27%)
No. of Patients (%), Responder (HBV [3]; outcome summary (26 pts)): 7 (27%)
